From ChEMBL document CHEMBL1201862, “PubChem BioAssay data set” (2004)
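Exposure lasted 48 hours, with cells grown in 96-well plates and compounds tested at five concentrations. GI50 is the concentration that inhibits growth by half.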 Calls of active or inactive are those of the source. Cut-off read from the data, not from the text of the source: active = GI50 up to about 1.1 µM and inactive = higher. Non-standard residues stand in square brackets, D forms with d. Residues, ends and D or L forms follow the SMILES beside them.

Assays:
Experiment in all cases: NCI anticancer screen, dose series, 48 h
[1] = system: SR
[2] = system: DLD-1
[3] = system: DMS-114
[4] = system: LXFL 529
[5] = system: DMS-273
[6] = system: KM-20L2
[7] = system: HOP-18

Compound | GI50 [1] | GI50 [2] | GI50 [3] | GI50 [4] | GI50 [5] | GI50 [6] | GI50 [7]
c1csc(C(NC2=NCCO2)C2CC2)c1 (stereo not given) | > 100 µM (inactive) |  |  |  |  |  | 
CN(C)c1nc(N(C)C)nc(N(C)CN(C)c2ccc(Cl)cc2)n1 |  | > 100 µM (inactive) | > 100 µM (inactive) | > 100 µM (inactive) | > 100 µM (inactive) |  | 
CN(C)CCNc1c2ccccc2c2c3c(cccc13)C(=O)N(CCN(C)C)C2=O |  | 0.0578 µM (active) |  |  | 0.122 µM (active) | 0.103 µM (active) | 0.188 µM (active)
CC(=O)NCCC1CN(C(=O)/C=C\C#C[Si](C)(C)C)c2ccccc21 (stereo not given) | > 10 µM (inactive) |  |  |  |  |  | 
COc1ccc(/C=N/n2cnc3c(c2=O)S/C(=C2/SC(=S)N(c4ccc(C)cc4)C2=O)N3c2ccccc2)cc1 | 31.6 µM (inactive) |  | 74.5 µM (inactive) | > 100 µM (inactive) | 38.9 µM (inactive) | > 100 µM (inactive) | 
Oc1ccc(-c2nc3ccc(Br)cc3s2)cc1 | 10.3 µM (inactive) |  |  |  |  |  | 
CC(C)C[C@H](NC(=O)[C@H](CC(C)C)NC(=O)[C@@H](Cc1c[nH]c2ccccc12)NC(=O)[C@H](Cc1ccccc1)NC(=O)[C@@H](Cc1c[nH]c2ccccc12)NC(=O)[C@H](CCC(N)=O)NC(=O)[C@H](CCC(N)=O)NC(=O)[C@H]1CCCN1C(=O)[C@@H](N)CCCCN)C(N)=O (H-K[dP]QQ[dW]F[dW]LL-NH2) |  | > 100 µM (inactive) |  |  | > 100 µM (inactive) | > 100 µM (inactive) | > 100 µM (inactive)
